# Reference: patent US20030144360A1, “Composition and method for modulating BAR/FXR receptor activity” (Allergan Sales, Inc., priority 2001, published 2003)
# B1: IBABP IR-1 BAR/FXR response element (dsDNA)
# DNA 1: CCTTAAGGTGAATAACCTTGGGGCTCC
# DNA 2: GGAGCCCCAAGGTTATTCACCTTAAGG
# What was measured:
# GAL-L-hRXRa = molecular target: T1, GAL-L-hRXRa (Homo sapiens, UniProt P19793); experiment: Co-transfection luciferase assay, MH100 × 4 reporter, GAL-L-hRXRa alone; settings: 50 μM CDCA
# T1 sequence (P19793 203-462): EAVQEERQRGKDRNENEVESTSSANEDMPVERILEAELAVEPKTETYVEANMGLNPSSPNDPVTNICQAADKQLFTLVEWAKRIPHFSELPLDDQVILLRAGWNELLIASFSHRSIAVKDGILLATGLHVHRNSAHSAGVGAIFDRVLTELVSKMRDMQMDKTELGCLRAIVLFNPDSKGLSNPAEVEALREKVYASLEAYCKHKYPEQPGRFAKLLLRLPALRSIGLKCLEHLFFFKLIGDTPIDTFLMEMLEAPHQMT
# Experimental: CV-1 African Green Monkey cells were grown in Dulbecco's Modified Eagle's medium supplemented with 10% resin-charcoal stripped fetal bovine serum (FBS), 50 U/ml penicillin G and 50 μg/ml streptomycin sulfate (DMEM-FBS) at 37° C. in 5% CO2. One day prior to transfection, cells were plated to 50-80% confluence using phenol red-free DMEM-FBS. Cells were transiently transfected by lipofection as described in Forman et al., 81 Cell 687 (1995). Liposomes (N-[1-(2,3-dioleoyloxy)propyl]-N,N,N-ammonium methyl sulfate, sold by Boehringer Mannheim under the name DOTAP) were formed according to the manufacturer's instructions. The liposomes contained reporter gene constructs (300 ng/10^5 cells); cytomegalovirus driven expression vectors (25 ng/10^5 cells) were added as indicated along with CMX-Bgal (500 ng/10^5 cells) as an internal control. After 2 hours the liposomes were removed and replaced with fresh media. Cells were incubated for approximately 40 hours with phenol red-free DMEM-FBS containing the indicated compounds. After exposure to the specified ligand, the cells were harvested.
# The harvested cells were assayed for the presence of luciferase activity. Cells were lysed in 0.1 M KPO4 (pH 7.8), 1.0% TRITON® X-100, 1.0 mM dithiolthreitol (DTT) and 2 mM ethylenediamine tetracetic acid (EDTA). Luciferase activity was measured by reaction of the cell lysates with luciferin in a reaction buffer comprising: 20 mM tricine, 1.07 mM Mg(CO3)4-Mg(OH)2-5H2O, 2.67 mM MgSO4.7H2O, 0.1 mM EDTA, 0.5 mM Sodium luciferin, 0.15 mg/ml Coenzyme A, 5 mM DTT, and 0.5 mM adenosine triphosphate (ATP). Resulting chemiluminescence was measured in a luminometer. […] All points were assayed in triplicate and varied by less than 15%. Each experiment was repeated three or more times with similar results.
# As shown below, in most cases hRXRop was recombinantly coexpressed with one other of the indicated receptor constructs, so as to permit the formation of hetero-or homodimers containing hRXRop.
# Expression of the luciferase reporter gene product was detected and quantified as described above.
# BAR-RXRα complex = molecular target: T2, BAR-RXRα complex (UniProt P19793+Q62735); settings: cited from earlier work
# T2 sequence (Q62735 1-469): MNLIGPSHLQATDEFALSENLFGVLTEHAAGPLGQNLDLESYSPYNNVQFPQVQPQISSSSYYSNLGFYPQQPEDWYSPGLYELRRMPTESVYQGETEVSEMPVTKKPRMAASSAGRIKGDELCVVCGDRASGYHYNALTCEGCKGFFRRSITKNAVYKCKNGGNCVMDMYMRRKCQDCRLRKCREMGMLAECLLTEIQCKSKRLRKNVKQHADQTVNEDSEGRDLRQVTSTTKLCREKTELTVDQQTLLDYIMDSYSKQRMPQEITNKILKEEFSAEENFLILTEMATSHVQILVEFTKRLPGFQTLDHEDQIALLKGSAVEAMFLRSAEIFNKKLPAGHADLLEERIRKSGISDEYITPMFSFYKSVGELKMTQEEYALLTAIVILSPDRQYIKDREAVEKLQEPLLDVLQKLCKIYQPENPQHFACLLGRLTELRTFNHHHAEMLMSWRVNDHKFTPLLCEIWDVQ
# T2 sequence (P19793 1-462): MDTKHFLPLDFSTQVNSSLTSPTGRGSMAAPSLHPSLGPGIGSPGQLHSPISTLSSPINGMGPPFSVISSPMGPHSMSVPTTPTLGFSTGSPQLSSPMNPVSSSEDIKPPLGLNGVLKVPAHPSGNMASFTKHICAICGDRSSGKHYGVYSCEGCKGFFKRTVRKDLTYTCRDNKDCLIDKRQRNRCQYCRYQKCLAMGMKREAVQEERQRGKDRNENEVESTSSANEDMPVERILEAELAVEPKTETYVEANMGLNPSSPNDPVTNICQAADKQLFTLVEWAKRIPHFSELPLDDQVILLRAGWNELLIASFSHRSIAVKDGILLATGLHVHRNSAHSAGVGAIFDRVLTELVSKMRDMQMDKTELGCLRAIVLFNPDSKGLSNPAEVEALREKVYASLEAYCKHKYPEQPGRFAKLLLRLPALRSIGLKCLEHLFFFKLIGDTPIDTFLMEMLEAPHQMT
# [1] = system: other nuclear hormone receptors; settings: cited from earlier work
# [2] = molecular target: BAR/FXR:RXR heterodimer (CV-1 cells) (/ Homo sapiens, UniProt Q62735;P19793 SEQ:1-469,SEQ:1-462); experiment: cell_activity; CV-1, 100 uM CDCA; text gives IBABP IR-1 reporter, FIG. 1A legend gives EcREx6; settings: label: 32P (gel shift)
Molecule,activation of the BAR-RXR complex (BAR-RXRα complex),also measured
"C[C@H](CCC(=O)O)[C@H]1CC[C@H]2[C@@H]3[C@H](O)C[C@@H]4C[C@H](O)CC[C@]4(C)[C@H]3CC[C@]12C [CDCA, chenodeoxycholic acid, reference compound]",,Reporter Activity (GAL-L-hRXRa): 0.38
"COC(=O)/C=C(\C)CC/C=C(\C)CC[C@H]1OC1(C)C [JH III, juvenile hormone III]",activated,activation of BAR/FXR or RXR alone (BAR-RXRα complex; either receptor alone): does not activate; activation of other nuclear hormone receptors [1]: failed to activate
CC(C)CCC[C@@H](C)[C@H]1CC[C@H]2[C@@H]3CC=C4C[C@@H](O)CC[C@]4(C)[C@H]3CC[C@]12C [cholesterol],did not activate,
CC(C)=CCCC(C)=CCCC(C)=CC=O [farnesal],somewhat less strongly,
CC(C)=CCCC(C)=CCCC(C)=CC(=O)O [farnesoic acid],somewhat less strongly,
CC(C)=CCC/C(C)=C/CO [geraniol],did not activate,
CC(C)=CCC/C(C)=C/CC/C(C)=C/CC/C(C)=C/CO [geranylgeraniol],somewhat less strongly,
CC(C)=CCC/C(C)=C/CC/C(C)=C/CC/C=C(\C)CC/C=C(\C)CCC=C(C)C [squalene],did not activate,
B1,,activity [2]: ~200 fold activation
